The target of one assay is T1, AXL (Homo sapiens, UniProt P30530).
T1 construct: endogenous in cells; host or cells: A-172 glioblastoma cells (ATCC #CRL-1620)
T1 sequence (P30530 26-894): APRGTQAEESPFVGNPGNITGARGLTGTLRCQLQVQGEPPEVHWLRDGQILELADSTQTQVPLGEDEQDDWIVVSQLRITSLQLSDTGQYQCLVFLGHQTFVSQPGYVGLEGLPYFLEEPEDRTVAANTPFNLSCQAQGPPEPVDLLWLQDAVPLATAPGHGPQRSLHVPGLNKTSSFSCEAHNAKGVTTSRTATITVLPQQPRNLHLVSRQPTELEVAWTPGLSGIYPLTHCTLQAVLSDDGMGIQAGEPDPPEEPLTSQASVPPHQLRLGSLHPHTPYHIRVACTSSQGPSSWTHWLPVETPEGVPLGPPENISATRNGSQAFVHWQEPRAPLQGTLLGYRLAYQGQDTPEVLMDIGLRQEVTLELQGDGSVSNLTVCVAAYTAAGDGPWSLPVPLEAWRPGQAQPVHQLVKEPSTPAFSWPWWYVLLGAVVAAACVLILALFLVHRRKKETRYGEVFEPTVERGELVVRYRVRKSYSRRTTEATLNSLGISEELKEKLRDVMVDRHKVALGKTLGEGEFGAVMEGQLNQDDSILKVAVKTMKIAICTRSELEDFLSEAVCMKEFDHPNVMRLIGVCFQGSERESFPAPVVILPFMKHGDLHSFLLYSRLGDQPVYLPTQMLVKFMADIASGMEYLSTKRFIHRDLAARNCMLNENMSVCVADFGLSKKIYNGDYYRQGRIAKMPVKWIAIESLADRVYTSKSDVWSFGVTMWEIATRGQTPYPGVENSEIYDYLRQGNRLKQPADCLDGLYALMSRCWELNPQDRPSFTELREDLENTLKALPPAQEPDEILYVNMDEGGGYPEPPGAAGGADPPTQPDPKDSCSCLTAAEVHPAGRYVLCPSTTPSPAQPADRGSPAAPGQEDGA
In words: AXL autophosphorylation ELISA in A-172 cells. It counts as cell-based. The conditions noted are these: Table 3 Cellular Activities, Gas6-stimulated, phospho-AXL ELISA. As to the method: A-172 glioblastoma cells (ATCC #CRL-1620) were seeded at 2.5×10^5 cells/well onto 24-well plates (Greiner #662165), in DMEM (Thermo Fisher #11995-040) containing 10% FBS (Thermo Fisher #26140-079), 1% MEM NEAA (Thermo Fisher #11140-050), 1% GlutaMax (Thermo Fisher #35050-061), and 1% Penicillin Streptomycin (Thermo Fisher #15140-122). A-172 cells were incubated at 37° C., 5% CO2 for 24 h and then starved for 24 h in serum-free medium. Test compounds were serially diluted to produce an 8-point dose curve in fresh serum-free medium to a final concentration of 0.3% DMSO (vehicle) and added to the cells and incubated for 1 h. Cells were then stimulated with 1 μg/mL recombinant human Gas6 (R&D Systems #885-GSB-500) for 15 min, washed with cold PBS, and immediately lysed with 150 μL of cold 1× lysis buffer [20 mM Tris, 137 mM sodium chloride, 2 mM EDTA, 10% glycerol, 1% NP-40 alternative, 1 mM activated sodium orthovanadate, 1 mM PefaBloc SC (Sigma-Aldrich #11429868001), protease/phosphatase inhibitor tablet (Thermo Fisher #A32959)]. Lysates were collected and 100 μL/well added into the human phospho-AXL DuoSet IC ELISA (R&D Systems #DYC2228-2). Assay was performed according to manufacturer's instructions and sample phospho-AXL concentrations were extrapolated using human phospho-AXL control (R&D Systems #841645) as a standard. Positive control wells (100% activity) contained Gas6-stimulated, DMSO-treated cell lysates. Negative control wells (0% activity) contained Gas6-stimulated, reference inhibitor-treated cell lysates. IC50 values were calculated by nonlinear regression analysis using a 4-parameter logistic curve fit in ActivityBase XE (IDBS).
For orientation: In an ELISA, binding on a coated surface is turned into a signal by an enzyme label.

For another assay, the target named is KDR (Homo sapiens, UniProt P35968). The assay is described as follows: KDR autophosphorylation ELISA in HUVEC cells. Also on record: endogenous in cells; host or cells: HUVEC (Lonza #C2519A). It counts as cell-based. The conditions noted are these: Table 3 Cellular Activities, VEGF165-stimulated, phospho-KDR ELISA. In a few lines:
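HUVEC, 24 h serum-free starvation; cpd 8-pt dilution, 0.3% DMSO final, 1 h; VEGF165 100 ng/mL, 5 min; cold lysis; phospho-KDR ELISA; IC50, 4PL.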

In general, IC50 refers to the concentration that gives 50% inhibition.

Chain of KDR (P35968 20-1356): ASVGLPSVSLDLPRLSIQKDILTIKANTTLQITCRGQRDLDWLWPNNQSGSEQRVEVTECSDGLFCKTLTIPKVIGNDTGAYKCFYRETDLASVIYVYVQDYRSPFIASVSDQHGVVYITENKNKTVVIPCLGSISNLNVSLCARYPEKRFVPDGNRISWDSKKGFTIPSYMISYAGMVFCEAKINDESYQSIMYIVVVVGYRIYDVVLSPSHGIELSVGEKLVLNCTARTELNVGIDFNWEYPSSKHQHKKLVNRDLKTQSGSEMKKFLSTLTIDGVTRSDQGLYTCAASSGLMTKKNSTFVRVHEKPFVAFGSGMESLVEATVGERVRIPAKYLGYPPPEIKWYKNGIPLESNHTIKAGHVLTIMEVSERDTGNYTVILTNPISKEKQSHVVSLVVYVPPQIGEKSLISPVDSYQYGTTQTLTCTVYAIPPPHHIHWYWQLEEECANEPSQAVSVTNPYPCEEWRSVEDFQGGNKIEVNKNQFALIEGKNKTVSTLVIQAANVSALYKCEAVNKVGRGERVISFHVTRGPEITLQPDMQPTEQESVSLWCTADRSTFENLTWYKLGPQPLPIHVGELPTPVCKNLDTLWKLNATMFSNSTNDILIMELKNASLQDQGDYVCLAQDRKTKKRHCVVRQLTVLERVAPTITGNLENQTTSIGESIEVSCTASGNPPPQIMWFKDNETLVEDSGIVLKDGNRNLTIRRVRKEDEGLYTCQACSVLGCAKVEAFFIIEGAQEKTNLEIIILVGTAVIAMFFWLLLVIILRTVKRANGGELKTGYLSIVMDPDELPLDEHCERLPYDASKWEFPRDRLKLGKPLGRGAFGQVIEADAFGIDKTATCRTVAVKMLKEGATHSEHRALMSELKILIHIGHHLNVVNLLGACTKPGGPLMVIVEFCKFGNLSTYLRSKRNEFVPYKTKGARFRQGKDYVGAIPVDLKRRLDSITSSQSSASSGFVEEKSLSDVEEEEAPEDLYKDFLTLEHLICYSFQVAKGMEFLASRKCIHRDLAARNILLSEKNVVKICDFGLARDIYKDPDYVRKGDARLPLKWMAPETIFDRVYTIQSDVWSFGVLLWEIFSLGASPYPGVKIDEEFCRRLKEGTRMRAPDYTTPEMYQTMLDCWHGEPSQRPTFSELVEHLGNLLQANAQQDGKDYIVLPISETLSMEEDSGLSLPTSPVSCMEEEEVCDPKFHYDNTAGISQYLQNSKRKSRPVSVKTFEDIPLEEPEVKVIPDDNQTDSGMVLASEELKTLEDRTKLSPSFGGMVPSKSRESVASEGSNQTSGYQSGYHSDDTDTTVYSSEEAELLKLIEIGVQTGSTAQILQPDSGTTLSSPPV

Regarding `COc1cnc2c(Oc3ccc(NC(=O)c4cn(CCF)c(C)c(-c5cc(C)cs5)c4=O)cc3F)ccnc2c1` [Compound 328, 1-(2-Fluoroethyl)-N-[3-fluoro-4-[(7-methoxy-1,5-naphthyridin-4-yl)oxy]phenyl]-6-methyl-5-(4-methylthiophen-2-yl)-4-oxopyridine-3-carboxamide], the IC50 against AXL was not above 100 nM; against KDR, 300 to 1000 nM.
The corresponding values for `COc1cc2nccc(Oc3ccc(NC(=O)c4nccn(-c5ccc(F)cn5)c4=O)cc3F)c2nc1OC` [Compound 246, N-[4-[(6,7Dimethoxy-1,5-naphthyridin-4-yl)oxy]-3-fluorophenyl]-4-(5-fluoropyridin-2-yl)-3-oxopyrazine-2-carboxamide] are not above 100 nM and 100 to 300 nM.
For the compound `COc1cc(-n2c(C)ccc(C(=O)Nc3ccc(Oc4ccnc5cc(OC)c(OC)nc45)c(F)c3)c2=O)ccn1` [Compound 226, N-[4-[(6,7-Dimethoxy-1,5-naphthyridin-4-yl)oxy]-3-fluorophenyl]-1-(2-methoxypyridin-4-yl)-6-methyl-2-oxopyridine-3-carboxamide], the IC50 on AXL and against KDR was not above 100 nM each time.
As for `COc1cc2nccc(Oc3ccc(NC(=O)c4cc(C(C)=O)c(C)n(-c5ccoc5)c4=O)cc3F)c2nc1OC` [Compound 235, 5-Acetyl-N-[4-[(6,7-dimethoxy-1,5-naphthyridin-4-yl)oxy]-3-fluorophenyl]-1-(furan-3-yl)-6-methyl-2-oxopyridine-3-carboxamide], the figures for the IC50 against AXL and against KDR were not above 100 nM and 300 to 1000 nM, respectively.
The corresponding values for `COc1cc2nccc(Oc3ccc(NC(=O)c4ccc(C)n(-c5ccc(F)cn5)c4=O)cc3F)c2nc1OC` [Compound 43, N-[4-[(6,7-Dimethoxy-1,5-naphthyridin-4-yl)oxy]-3-fluorophenyl]-1-(5-fluoropyridin-2-yl)-6-methyl-2-oxopyridine-3-carboxamide] are not above 100 nM and not above 100 nM.
In the case of `COc1cc2nccc(Oc3ccc(NC(=O)c4cnc(C)c(-c5ccco5)c4O)cc3)c2cc1OC` [Compound 258, N-[4-(6,7-Dimethoxyquinolin-4-yl)oxyphenyl]-5-(furan-2-yl)-4-hydroxy-6-methylpyridine-3-carboxamide], the IC50 against AXL and on KDR was not above 100 nM each time.
Consider `COCCOc1cc2nccc(Oc3ccc(NC(=O)c4cnc(C)c(-c5ccco5)c4O)cc3F)c2nc1OC` [Compound 260, N-[3-Fluoro-4-[[6-methoxy-7-(2-methoxyethoxy)-1,5-naphthyridin-4-yl]oxy]phenyl]-5-(furan-2-yl)-4-hydroxy-6-methylpyridine-3-carboxamide], for which the IC50 against AXL and on KDR was not above 100 nM in each case.
Consider `COc1cc2nccc(Oc3ccc(NC(=O)c4c5n(cc(-c6cccs6)c4=O)CCOC5)cc3F)c2nc1OC` [Compound 309, N-[4-[(6,7-Dimethoxy-1,5-naphthyridin-4-yl)oxy]-3-fluorophenyl]-8-oxo-7-thiophen-2-yl-3,4-dihydro-1H-pyrido[2,1-c][1,4]oxazine-9-carboxamide], for which the IC50 against AXL was not above 100 nM; on KDR, 300 to 1000 nM.
In the same order, the values of `COc1cnc2c(Oc3ccc(NC(=O)c4c(C)ncc(-c5ccccn5)c4O)cc3F)ccnc2c1` [Compound 70, N-[3-Fluoro-4-[(7-methoxy-1,5-naphthyridin-4-yl)oxy]phenyl]-4-hydroxy-2-methyl-5-pyridin-2-ylpyridine-3-carboxamide] are not above 100 nM and not above 100 nM.
The corresponding values for `COc1cc2nccc(Oc3ccc(NC(=O)c4ccc(C)n(-c5ccncc5)c4=O)cc3F)c2nc1OC` [Compound 221, N-[4-[(6,7-Dimethoxy-1,5-naphthyridin-4-yl)oxy]-3-fluorophenyl]-6-methyl-2-oxo-1-pyridin-4-ylpyridine-3-carboxamid] are not above 100 nM and not above 100 nM.
In the same order, the values of `COc1cc2nccc(Oc3ccc(NC(=O)c4c5n(cc(-c6ccoc6)c4=O)CCOC5)cc3)c2nc1OC` [Compound 310, N-[4-[(6,7-Dimethoxy-1,5-naphthyridin-4-yl)oxy]phenyl]-7-(furan-3-yl)-8-oxo-3,4-dihydro-1H-pyrido[2,1-c][1,4]oxazine-9-carboxamide] are not above 100 nM and 300 to 1000 nM.
As to `COc1cc2nccc(Oc3ccc(NC(=O)c4ccc(C)n(-c5ccnc(C)c5)c4=O)cc3F)c2nc1OC` [Compound 230, N-[4-[(6,7-Dimethoxy-1,5-naphthyridin-4-yl)oxy]-3-fluorophenyl]-6-methyl-1-(2-methylpyridin-4-yl)-2-oxopyridine-3-carboxamide], the 50% inhibitory concentration (IC50) against AXL and at KDR was not above 100 nM each time.
As to `COc1cc2nccc(Oc3ccc(NC(=O)c4c5n(c(C)c(-c6ccsc6)c4=O)CCOC5)cc3F)c2nc1OC` [Compound 307, N-[4-[(6,7-Dimethoxy-1,5-naphthyridin-4-yl)oxy]-3-fluorophenyl]-6-methyl-8-oxo-7-thiophen-3-yl-3,4-dihydro-1H-pyrido[2,1-c][1,4]oxazine-9-carboxamide], the IC50 is not above 100 nM against AXL and 100 to 300 nM against KDR.
In the same order, the values of `COc1cc2nccc(Oc3ccc(NC(=O)c4c(C)n(C)c(C)c(-c5coc6ccccc56)c4=O)cc3F)c2nc1OC` [Compound 262, 5-(1-Benzofuran-3-yl)-N-[4-[(6,7-dimethoxy-1,5-naphthyridin-4-yl)oxy]-3-fluorophenyl]-1,2,6-trimethyl-4-oxopyridine-3-carboxamide] are not above 100 nM and 300 to 1000 nM.
The corresponding values for `COc1cc2nccc(Oc3ccc(NC(=O)c4cn(CCF)c(C)c(-c5cccs5)c4=O)cc3F)c2nc1OC` [Compound 327, N-[4-[(6,7-Dimethoxy-1,5-naphthyridin-4-yl)oxy]-3-fluorophenyl]-1-(2-fluoroethyl)-6-methyl-4-oxo-5-thiophen-2-ylpyridine-3-carboxamide] are not above 100 nM and 100 to 300 nM.
In the same order, the values of `COc1cc2nccc(Oc3ccc(NC(=O)c4ccc(C)n(-c5ccnc(F)c5)c4=O)cc3F)c2nc1OC` [Compound 233, N-[4-[(6,7-Dimethoxy-1,5-naphthyridin-4-yl)oxy]-3-fluorophenyl]-1-(2-fluoropyridin-4-yl)-6-methyl-2-oxopyridine-3-carboxamide] are not above 100 nM and not above 100 nM.
Turning to `COc1cc2nccc(Oc3ccc(NC(=O)c4c(C)ccn(-c5ccc(F)cn5)c4=O)cc3F)c2nc1OC` [Compound 41, N-[4-[(6,7-Dimethoxy-1,5-naphthyridin-4-yl)oxy]-3-fluorophenyl]-1-(5-fluoropyridin-2-yl)-4-methyl-2-oxopyridine-3-carboxamide], the IC50 at AXL and against KDR was not above 100 nM throughout.
On to `COc1cnc2c(Oc3ccc(NC(=O)c4cnc(C)c(-c5cccs5)c4O)cc3)ccnc2c1` [Compound 257, 4-Hydroxy-N-[4-[(7-methoxy-1,5-naphthyridin-4-yl)oxy]phenyl]-6-methyl-5-thiophen-2-ylpyridine-3-carboxamide], for which the IC50 against AXL and at KDR was not above 100 nM in each case.
